In patent US10144715B2, “Piperazine derivatives as liver X receptor modulators” (priority 2014, dated 2018):
pEC50, pIC50, pKi: −log10 of the molar value. Read-outs that look alike come from different tables or passages of the source.

Key:
[1] = molecular target: T1, LXR β LBD protein (Homo sapiens (Human), UniProt P55055); assay: biochemical; type: biochemical; conditions: agonist mode; for pEC50: read-out: FRET LXRβ EC50
Target sequence in this assay (P55055 222-460): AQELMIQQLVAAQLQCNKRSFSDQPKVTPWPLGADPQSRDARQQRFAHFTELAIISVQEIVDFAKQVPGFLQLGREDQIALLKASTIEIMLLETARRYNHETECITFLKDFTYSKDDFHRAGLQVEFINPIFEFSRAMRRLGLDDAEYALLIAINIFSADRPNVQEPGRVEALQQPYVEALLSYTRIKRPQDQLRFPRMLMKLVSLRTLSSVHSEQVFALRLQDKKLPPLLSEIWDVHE

[2] = molecular target: T2, Gal4 DNA binding domain fused to the LBD of LXRα in HEK293 cells (Homo sapiens (Human), UniProt Q13133); assay: LXR luciferase transcriptional reporter gene assay, agonist mode, LXRα; type: cell-based; conditions: for pEC50: read-out: Cell LXRα EC50
[3] = molecular target: T3, Gal4 DNA binding domain fused to the LBD of LXRβ in HEK293 cells (Homo sapiens (Human), UniProt P55055); assay: cell-based; type: cell-based
[4] = molecular target: T4, LXR α LBD protein (Homo sapiens (Human), UniProt Q13133); assay: Human LXRα coactivator recruitment FRET assay, agonist mode; type: biochemical; conditions: agonist mode
In short: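 Time-resolved FRET (delay 100 µs, window 200 µs) after 2 h rt incubation of compound with 10 nM (2×) GST-tagged LXRα or LXRβ LBD plus 200 nM fluorescein-SRC2-3 and 20 nM Tb-anti-GST (4×). Percent control vs concentration fit to four-parameter model; EC50 at inflection.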

[5] = molecular target: T3, Gal4 DNA binding domain fused to the LBD of LXRβ in HEK293 cells; assay: cell-based
[6] = molecular target: T2, Gal4 DNA binding domain fused to the LBD of LXRα in HEK293 cells; assay: LXR luciferase transcriptional reporter gene assay, antagonist mode (200 nM T0901317), LXRα; type: cell-based; conditions: for pIC50: read-out: Cell LXRα IC50
[7] = molecular target: T4, LXR α LBD protein; assay: LXR α radioligand binding assay (SPA, competition with [3H]TO901317); conditions: read-out: LXRα Binding Ki
[8] = molecular target: T1, LXR β LBD protein; assay: biochemical; type: binding; conditions: read-out: LXRβ Binding Ki
Target sequence in this assay (P55055 222-460 limits assumed): as the sequence (P55055 222-460) above

[9] = antagonist mode, 200 nM T0901317, HEK293 reporter gene assay
[10] = antagonist mode, 200 nM T0901317, HEK293 reporter gene assay, read-out: Cell LXRβ IC50
[11] = agonist mode, read-out: Cell LXRβ EC50

T3 sequence (P55055 222-460 limits assumed): as the sequence (P55055 222-460) above
T2 sequence (Q13133 209-447): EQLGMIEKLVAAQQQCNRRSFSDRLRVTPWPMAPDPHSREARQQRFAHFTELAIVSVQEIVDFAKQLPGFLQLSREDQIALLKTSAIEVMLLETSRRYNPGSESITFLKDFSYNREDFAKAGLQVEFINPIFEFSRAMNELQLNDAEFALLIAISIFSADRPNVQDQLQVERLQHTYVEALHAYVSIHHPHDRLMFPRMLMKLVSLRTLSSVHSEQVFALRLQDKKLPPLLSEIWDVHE
T4 sequence (Q13133 209-447): as above

Molecule: NS(=O)(=O)c1cccc(N2CCN(C[C@H]3CC[C@@H](C(F)(F)F)CC3)[C@@H](c3ccccc3)C2)c1 (single isomer, unassigned) [48-35]
- FRET LXRβ efficacy [1]: 22%
- pEC50 [1]: 7.34
- Cell LXRα efficacy [2]: 351 (62) %
- pEC50 [2]: 6.45
- Cell LXRβ efficacy [3, 9]: 38%
- pIC50 [3, 10]: 6.50
- pEC50 [4]: 6.38
- FRET LXRα efficacy [4]: 52%
- Cell LXRβ efficacy ([5]; agonist mode): 27%
- pEC50 [5, 11]: 6.92
- Cell LXRα efficacy [6]: 7574 (100) %
- pIC50 [6]: 5.12

Molecule: CC(C)[C@@H]1CN(c2ccc(F)c(S(C)(=O)=O)c2)CCN1c1ccc(C(F)(F)F)cn1 [7-36, (R)-4-(4-fluoro-3-(methylsulfonyl)phenyl)-2-isopropyl-1-(5-(trifluoromethyl)pyridin-2-yl)piperazine]
- pKi [7]: 7.52
- Cell LXRα efficacy [2]: 333 (106) %
- pEC50 [2]: 6.48
- pIC50 [3]: < 5.00
- pEC50 [4]: 6.38
- FRET LXRα efficacy [4]: 102%
- Cell LXRβ efficacy [5]: 121 (93) %
- pEC50 [5]: 6.92
- pKi [8]: 8.40
- pIC50 [6]: < 5.00

Molecule: Cc1nc(N2CCN(c3ccc(F)c(S(C)(=O)=O)c3)C[C@H]2C(C)C)ncc1Cl [7-12, (R)-5-chloro-2-(4-(4-fluoro-3-(methylsulfonyl)phenyl)-2-isopropylpiperazin-1-yl)-4-methylpyrimidine]
- pKi [7]: 6.98
- Cell LXRα efficacy [2]: 997 (83) %
- pEC50 [2]: 6.00
- pIC50 [3]: < 5.00
- pEC50 [4]: 6.17
- FRET LXRα efficacy [4]: 86%
- pEC50 [5]: 6.75
- Cell LXRβ efficacy ([5]; agonist mode): 177 (58) %
- pKi [8]: 8.05
- pIC50 [6]: < 5.00

Molecule: CS(=O)(=O)c1cc(N2CCN(C[C@H]3CC[C@@H](C(F)(F)F)CC3)[C@@H](c3ccccc3)C2)ccc1C(N)=O (single isomer, unassigned) [17-39]
- FRET LXRβ efficacy [1]: 61%
- pEC50 [1]: 7.20
- Cell LXRα efficacy [2]: 1648 (67) %
- pEC50 [2]: 5.78
- Cell LXRβ efficacy [3, 9]: 135%
- pIC50 [3, 10]: 5.58
- pEC50 [4]: 6.57
- FRET LXRα efficacy [4]: 55%
- Cell LXRβ efficacy ([5]; agonist mode): 26%
- pEC50 [5, 11]: 6.20
- pKi [8]: 6.97
- Cell LXRα efficacy [6]: 9842 (125) %
- pIC50 [6]: 5.01

Molecule: CC(C)[C@H]1CC[C@H](CN2CCN(c3cccc(S(C)(=O)=O)c3)C[C@@H]2c2ccccc2)CC1 (single isomer, unassigned) [48-15]
- FRET LXRβ efficacy [1]: 32%
- pEC50 [1]: 6.71
- Cell LXRα efficacy [2]: 1658 (31) %
- pEC50 [2]: 5.78
- Cell LXRβ efficacy [3, 9]: 60%
- pIC50 [3, 10]: 6.34
- pEC50 [4]: 5.64
- FRET LXRα efficacy [4]: 40%
- Cell LXRβ efficacy ([5]; agonist mode): 21%
- pEC50 [5, 11]: 6.25
- pIC50 [6]: < 5.00

Molecule: benzyl (R)-2-isobutyl-4-(3-(methylsulfonyl)phenyl)piperazine-1-carboxylate [1-13]
- FRET LXRβ efficacy [1]: 52%
- pEC50 [1]: 7.44
- Cell LXRα efficacy [2]: 2139 (16) %
- pEC50 [2]: 5.67
- Cell LXRβ efficacy [3, 9]: 132%
- pIC50 [3, 10]: 6.12
- pEC50 [4]: 6.23
- FRET LXRα efficacy [4]: 37%
- Cell LXRβ efficacy ([5]; agonist mode): 7%
- pEC50 [5, 11]: 6.58
- Cell LXRα efficacy [6]: 4105 (131) %
- pIC50 [6]: 5.39

Molecule: CS(=O)(=O)c1cccc(N2CCN(C[C@H]3CC[C@H](C(F)(F)F)CC3)[C@@H](c3ccccc3)C2)c1 (single isomer, unassigned) [48-33]
- FRET LXRβ efficacy [1]: 82%
- pEC50 [1]: 6.43
- Cell LXRα efficacy [2]: 1245 (49) %
- pEC50 [2]: 5.90
- Cell LXRβ efficacy [3, 9]: 52%
- pIC50 [3, 10]: 6.23
- pEC50 [4]: 5.31
- FRET LXRα efficacy [4]: 74%
- Cell LXRβ efficacy ([5]; agonist mode): 32%
- pEC50 [5, 11]: 6.33
- Cell LXRα efficacy [6]: 5224 (46) %
- pIC50 [6]: 5.28

Molecule: NS(=O)(=O)c1cccc(N2CCN(C[C@H]3CC[C@@H](C(F)F)CC3)[C@@H](c3ccccc3)C2)c1 (single isomer, unassigned) [48-23]
- pKi [7]: 7.03
- Cell LXRα efficacy [2]: 319 (43) %
- pEC50 [2]: 6.50
- Cell LXRβ efficacy [3, 9]: 91%
- pIC50 [3, 10]: 6.39
- Cell LXRβ efficacy ([5]; agonist mode): 14%
- pEC50 [5, 11]: 7.01
- pKi [8]: 7.96
- Cell LXRα efficacy [6]: 4955 (123) %
- pIC50 [6]: 5.30

Molecule: CC(C)[C@@H]1CN(c2ccc(F)c(S(C)(=O)=O)c2)CCN1c1ncc(Cc2ccc(C(C)(C)O)cc2)c(C(F)(F)F)n1 [Cpd No 31-1, (R)-2-(4-((2-(4-(4-fluoro-3-(methylsulfonyl)phenyl)-2-isopropylpiperazin-1-yl)-4-(trifluoromethyl)pyrimidin-5-yl)methyl)phenyl)propan-2-ol]
- pKi [7]: 6.80
- Cell LXRα efficacy [2]: 2718 (7) %
- pEC50 [2]: 5.57
- pIC50 [3]: 6.94
- Cell LXRβ efficacy [3, 9]: 115 (124) %
- pEC50 [5]: < 4.70
- pKi [8]: 7.74
- Cell LXRα efficacy [6]: 443 (98) %
- pIC50 [6]: 6.35

Molecule: CC[C@@H](O)c1cnc(N2CCN(c3ccc(F)c(S(C)(=O)=O)c3)C[C@H]2C(C)C)nc1C(F)(F)F (single isomer, unassigned) [Cpd No 12-7]
- pKi [7]: 7.09
- Cell LXRα efficacy [2]: 862 (25) %
- pEC50 ([2]; agonist mode): 6.06
- pIC50 [3]: 6.98
- Cell LXRβ efficacy [3, 9]: 104 (87) %
- pEC50 [5]: 7.31
- Cell LXRβ efficacy ([5]; agonist mode): 49 (15) %
- pKi [8]: 8.05
- pIC50 [6, 9]: 6.16

Molecule: CC(C)[C@@H]1CN(c2ccc(F)c(S(C)(=O)=O)c2)CCN1c1ncc(CN(C)C(C)(C)C)c(C(F)(F)F)n1 [15-6, (R)-N-((2-(4-(4-fluoro-3-(methylsulfonyl)phenyl)-2-isopropylpiperazin-1-yl)-4-(trifluoromethyl)pyrimidin-5-yl)methyl)-N,2-dimethylpropan-2-amine]
- pKi [7]: < 5.48
- pEC50 ([2]; agonist mode): < 4.70
- pIC50 [3]: 5.88
- Cell LXRβ efficacy [3, 9]: 1325 (91) %
- pEC50 [5]: < 4.70
- pKi [8]: 6.44
- Cell LXRα efficacy [6]: 6215 (98) %
- pIC50 [6, 9]: 5.21

Molecule: CC(C)[C@@H]1CN(c2ccc(F)c(S(C)(=O)=O)c2)CCN1c1ncc(C(=O)N(C)CCC(C)(C)O)c(C(F)(F)F)n1 [17-17, (R)-2-(4-(4-fluoro-3-(methylsulfonyl)phenyl)-2-isopropylpiperazin-1-yl)-N-(3-hydroxy-3-methylbutyl)-N-methyl-4-(trifluoromethyl)pyrimidine-5-carboxamide]
- pKi [7]: < 5.48
- pEC50 ([2]; agonist mode): < 4.70
- pIC50 [3]: 6.16
- Cell LXRβ efficacy [3, 9]: 684 (93) %
- pEC50 [5]: < 4.70
- pKi [8]: 6.21
- pIC50 [6, 9]: 5.58

Molecule: CC(C)[C@@H]1CN(c2ccc(F)c(S(C)(=O)=O)c2Cl)CCN1c1ncc(Cl)c(C2CC2)n1 [Cpd No 22-2, (R)-5-chloro-2-(4-(2-chloro-4-fluoro-3-(methylsulfonyl)phenyl)-2-isopropylpiperazin-1-yl)-4-cyclopropylpyrimidine]
- Cell LXRα efficacy [2]: 1227 (7) %
- pEC50 [2]: 5.91
- Cell LXRβ efficacy [3]: 2144 (96) %
- pIC50 [3]: 5.67
- pEC50 [4]: 6.57
- FRET LXRα efficacy [4]: 12%
- Cell LXRβ efficacy [5]: 750 (10) %
- pEC50 [5]: 6.12
- pKi [8]: 6.76
- Cell LXRα efficacy [6]: 3610 (83) %
- pIC50 [6]: 5.44
